Legend:
Test in all cases: relative viability (nuclei count vs DMSO), 5 days (fraction); higher = more cells survive
AT9283 + Linsitinib = compound: O=C(Nc1c[nH]nc1-c1nc2ccc(CN3CCOCC3)cc2[nH]1)NC1CC1 [AT9283] + C[C@]1(O)C[C@@H](c2nc(-c3ccc4ccc(-c5ccccc5)nc4c3)c3c(N)nccn32)C1 [Linsitinib] (partner 1 µM)
Method in brief: (§1)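 Cells from lung cancer lines were seeded into 1536-well plates and, one day later, dosed by pin tool. Treatments were either a single drug or a fixed dose of an anchor drug with five library-drug doses (not always all listed) in √10 steps. After 5 days, nuclei were stained in a one-step fixation (final 0.05% Triton X-100, 1% formaldehyde, 1 ug/ml Hoechst) and counted on 4× images, and relative viability is the treated-to-vehicle nuclei ratio, as the median of duplicate plates.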

AT9283 + Alpelisib = compound: O=C(Nc1c[nH]nc1-c1nc2ccc(CN3CCOCC3)cc2[nH]1)NC1CC1 [AT9283] + Cc1nc(NC(=O)N2CCC[C@H]2C(N)=O)sc1-c1ccnc(C(C)(C)C(F)(F)F)c1 [Alpelisib] (partner 2 µM)
Method in brief: as §1

AT9283 + Bortezomib = compound: O=C(Nc1c[nH]nc1-c1nc2ccc(CN3CCOCC3)cc2[nH]1)NC1CC1 [AT9283] + CC(C)C[C@H](NC(=O)[C@H](Cc1ccccc1)NC(=O)c1cnccn1)B(O)O [Bortezomib] (partner 0.002 µM)
Method in brief: as §1

Erlotinib + Olaparib = compound: C#Cc1cccc(Nc2ncnc3cc(OCCOC)c(OCCOC)cc23)c1 [Erlotinib] + O=C(c1cc(Cc2n[nH]c(=O)c3ccccc23)ccc1F)N1CCN(C(=O)C2CC2)CC1 [Olaparib] (partner 8 µM)
Method in brief: as §1

AT9283 + Olaparib = compound: O=C(Nc1c[nH]nc1-c1nc2ccc(CN3CCOCC3)cc2[nH]1)NC1CC1 [AT9283] + O=C(c1cc(Cc2n[nH]c(=O)c3ccccc23)ccc1F)N1CCN(C(=O)C2CC2)CC1 [Olaparib] (partner 8 µM)
Method in brief: as §1

| Cell Line | relative viability (AT9283 + Linsitinib; first compound 0.003 µM) | relative viability (AT9283 + Linsitinib; first compound 0.03 µM) | relative viability (AT9283 + Linsitinib; first compound 0.09487 µM) | relative viability (AT9283 + Linsitinib; first compound 0.3 µM) | relative viability (AT9283 + Alpelisib; first compound 0.003 µM) | relative viability (AT9283 + Alpelisib; first compound 0.03 µM) | relative viability (AT9283 + Alpelisib; first compound 0.09487 µM) | relative viability (AT9283 + Alpelisib; first compound 0.3 µM) | relative viability (AT9283 + Bortezomib; first compound 0.003 µM) | relative viability (AT9283 + Bortezomib; first compound 0.03 µM) | relative viability (AT9283 + Bortezomib; first compound 0.09487 µM) | relative viability (AT9283 + Bortezomib; first compound 0.3 µM) | relative viability (Erlotinib + Olaparib; first compound 0.02 µM) | relative viability (Erlotinib + Olaparib; first compound 2 µM) | relative viability (AT9283 + Olaparib; first compound 0.003 µM) | relative viability (AT9283 + Olaparib; first compound 0.03 µM) | relative viability (AT9283 + Olaparib; first compound 0.09487 µM) | relative viability (AT9283 + Olaparib; first compound 0.3 µM) | relative viability (Erlotinib + Olaparib; first compound 0.2 µM) | relative viability (Erlotinib + Olaparib; first compound 0.6325 µM) |
| --- | --- | --- | --- | --- | --- | --- | --- | --- | --- | --- | --- | --- | --- | --- | --- | --- | --- | --- | --- | --- |
| IA-LM | 0.626 | 0.432 | 0.311 | 0.102 | 0.891 | 0.418 | 0.199 | 0.0959 | 0.748 | 0.367 | 0.112 | 0.0951 | 0.757 | 0.905 | 0.998 | 0.524 | 0.243 | 0.145 | – | – |
| EBC-1 | 0.997 | 0.354 | 0.214 | 0.111 | 0.961 | 0.291 | 0.176 | 0.177 | 0.526 | 0.239 | 0.172 | 0.169 | 0.724 | – | 0.669 | 0.334 | 0.18 | 0.145 | 0.75 | 0.675 |
| NCI-H1703 | 0.985 | 0.284 | 0.258 | 0.223 | 0.361 | 0.214 | 0.174 | 0.223 | 0.452 | 0.196 | 0.141 | 0.169 | 0.48 | 0.389 | 0.383 | 0.155 | 0.169 | 0.229 | 0.512 | 0.43 |
| 201T | 1.02 | 1.02 | 0.8 | 0.409 | 1.02 | 1.08 | 0.525 | 0.445 | 1.02 | 1.14 | 1.09 | 0.487 | 0.846 | 0.774 | 0.867 | 0.815 | 0.356 | 0.335 | 0.85 | 0.788 |
| CAL-12T | 0.905 | 0.286 | 0.22 | 0.202 | 1.27 | 0.956 | 0.362 | 0.296 | 0.89 | 0.896 | 0.547 | 0.212 | 0.742 | 0.474 | 0.734 | 0.536 | 0.307 | 0.222 | 0.674 | 0.488 |
| NCI-H1792 | 0.492 | 0.629 | 0.192 | 0.117 | 0.633 | 0.82 | 0.565 | 0.242 | 0.918 | 0.985 | 0.961 | 0.701 | 0.407 | 0.383 | 0.468 | 0.491 | 0.358 | 0.252 | 0.299 | 0.464 |
| NCI-H596 | 1.06 | 1.01 | 0.912 | 0.564 | 0.508 | 0.509 | 0.531 | 0.496 | 0.999 | 1.14 | 0.947 | 0.772 | 0.776 | 0.586 | 0.653 | 0.663 | 0.619 | 0.567 | 0.635 | 0.674 |
| NCI-H1651 | 1.05 | 0.864 | 0.348 | 0.357 | 1.01 | 0.921 | 0.689 | 0.399 | 0.914 | 0.897 | 0.902 | 0.618 | 0.171 | 0.145 | 0.176 | 0.189 | 0.209 | 0.243 | 0.188 | 0.173 |
| SW 1573 | 0.917 | 0.413 | 0.223 | 0.184 | 0.766 | 0.441 | 0.226 | 0.249 | 1.04 | 0.304 | 0.279 | 0.236 | 0.502 | 0.364 | 0.485 | 0.159 | 0.159 | 0.14 | 0.494 | 0.558 |
| NCI-H460 | 0.761 | 0.0766 | 0.0186 | 0.0256 | 0.516 | 0.43 | 0.0573 | 0.017 | 0.922 | 0.905 | 0.257 | 0.032 | 0.453 | 0.363 | 0.479 | 0.307 | 0.127 | 0.113 | 0.345 | 0.425 |
| EMC-BAC-2 | 0.85 | 0.634 | 0.205 | 0.226 | 0.775 | 0.499 | 0.173 | 0.157 | 1.04 | 0.792 | 0.216 | 0.204 | 0.569 | 0.46 | 0.502 | 0.301 | 0.261 | 0.203 | 0.547 | 0.492 |
| HCC-44 | 0.628 | 0.745 | 0.148 | 0.14 | 0.784 | 0.795 | 0.2 | 0.116 | 0.814 | 0.833 | 0.548 | 0.399 | 0.94 | 0.947 | 1.01 | 0.963 | 0.724 | 0.817 | 0.984 | 1.05 |
| PC-3 [JPC-3] | 0.94 | 1.03 | 0.74 | 0.521 | 1.02 | 0.997 | 0.621 | 0.527 | 0.822 | 0.86 | 0.867 | 0.687 | 1.05 | 0.434 | 1.31 | 1.03 | 0.844 | 0.607 | 0.559 | 0.466 |
| LXF-289 | 1 | 0.47 | 0.132 | 0.12 | 0.964 | 1.01 | 0.132 | 0.105 | 0.972 | 0.992 | 0.184 | 0.131 | 1.15 | 1.04 | 1.13 | 0.98 | 0.0877 | 0.0796 | 1.12 | 1.12 |
| Calu-6 | 0.859 | 0.286 | 0.222 | 0.197 | 0.986 | 0.23 | 0.26 | 0.246 | 0.956 | 0.297 | 0.272 | 0.254 | 0.602 | 0.519 | 0.575 | 0.228 | 0.178 | 0.197 | 0.546 | 0.552 |
| NCI-H2126 | 0.685 | 0.758 | 0.714 | 0.276 | 0.722 | 0.788 | 0.501 | 0.323 | 1.11 | 1.09 | 1.1 | 0.528 | 0.872 | 0.718 | 0.978 | 0.938 | 0.698 | 0.364 | 0.851 | 0.729 |

From the supplement of paper PMC10307832
